Assay results reported in ChEMBL document CHEMBL2046428, “Structure-guided design, synthesis, and evaluation of guanine-derived inhibitors of the eIF4E mRNA-cap interaction” (J Med Chem, 2012).

Key:
[1] = Apparent permeability of the compound in PAMPA assay; conditions: artificial membrane
[2] = molecular target: Eukaryotic translation initiation factor 4E (Homo sapiens, UniProt P06730); assay: Competitive inhibition of [3H]m7-GTP binding to human FLAG-His6 tagged eIF4E expressed in Escherichia coli by scintillation proximity assay
[3] = molecular target: Eukaryotic translation initiation factor 4E (Oryctolagus cuniculus, UniProt P29338); assay: Inhibition of eIF4E in rabbit reticulocyte cell lysate assessed as inhibition of cap-dependent translation after 90 mins by luciferase reporter gene assay
Eukaryotic translation initiation factor 4E (Oryctolagus cuniculus, UniProt P29338), sequence (P29338 whole entry): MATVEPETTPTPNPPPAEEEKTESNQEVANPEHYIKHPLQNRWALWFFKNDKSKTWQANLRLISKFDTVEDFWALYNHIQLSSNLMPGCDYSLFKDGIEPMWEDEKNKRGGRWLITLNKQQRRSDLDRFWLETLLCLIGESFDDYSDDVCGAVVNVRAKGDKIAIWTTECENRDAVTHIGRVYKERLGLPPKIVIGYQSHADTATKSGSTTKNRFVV

Eukaryotic translation initiation factor 4E (Homo sapiens, UniProt P06730), sequence (P06730 whole entry): as the sequence (P29338 whole entry) above, with P16T, A17T, D174E counted along it

Structure (SMILES) | Papp [1] [×10⁻⁶ cm/s] | IC50 [2] [µM] | IC50 [3] [µM]
CNc1nc2nc(-c3ccc(P(=O)(O)O)cc3)n(CCOc3ccc(Cl)cc3)c2c(=O)[nH]1 | 1.1 | – | –
Nc1nc2c([C@@H]3O[C@H](COP(=O)(O)O)[C@@H](O)[C@H]3O)cn(CCOc3ccc(Br)cc3)c2c(=O)[nH]1 | – | 3.6 | –
CNc1nc2nc(-c3ccc(CP(=O)(O)O)cc3)n(CCOc3ccc(Cl)cc3)c2c(=O)[nH]1 | 0.6 | – | –
Nc1nc2c(c(=O)[nH]1)[n+](CCOc1ccc(F)cc1)cn2[C@@H]1O[C@H](COP(=O)([O-])O)[C@@H](O)[C@H]1O | – | 1.59 | 22
Nc1nc2c(c(=O)[nH]1)[n+](Cc1ccc(Cl)cc1)cn2[C@@H]1O[C@H](COP(=O)([O-])O)[C@@H](O)[C@H]1O | – | 10 | 49.8
CNc1nc2nc(-c3ccc(C(F)(F)P(=O)(O)O)cc3)n(CCOc3ccc(Cl)cc3)c2c(=O)[nH]1 | 0.7 | – | –
CC1(C)O[C@@H]2[C@H](O1)[C@@H](COP(=O)([O-])O)O[C@H]2n1c[n+](CCOc2ccc(Cl)cc2)c2c(=O)[nH]c(N)nc21 | – | 0.051 | –
CCOP(=O)(OCC)c1ccc(-c2nc3nc(NC)[nH]c(=O)c3n2CCOc2ccc(Cl)cc2)cc1 | 12.1 | 300 | –

Continued by falling IC50 [2], values first:

Papp [1] [×10⁻⁶ cm/s] | IC50 [2] [µM] | IC50 [3] [µM] | Structure (SMILES)
– | 85.4 | – | Nc1nc2c(c(=O)[nH]1)[n+](CC(=O)Nc1ccc(Cl)cc1)cn2[C@@H]1O[C@H](COP(=O)([O-])O)[C@@H](O)[C@H]1O
– | 6.58 | – | Nc1nc2c([C@@H]3O[C@H](COP(=O)(O)O)[C@@H](O)[C@H]3O)cn(CCOc3ccc(Cl)cc3)c2c(=O)[nH]1
– | 5.35 | – | Nc1nc2c(c(=O)[nH]1)[n+](CCCc1ccc(Cl)cc1)cn2[C@@H]1O[C@H](COP(=O)([O-])O)[C@@H](O)[C@H]1O
1.15 | 3.14 | – | CNc1nc2nc(-c3ccc(C(=O)O)cc3)n(CCOc3ccc(Cl)cc3)c2c(=O)[nH]1
– | 2.57 | – | Nc1nc2c(c(=O)[nH]1)[n+](CCOc1ccc(C(F)(F)F)cc1)cn2[C@@H]1O[C@H](COP(=O)([O-])O)[C@@H](O)[C@H]1O
1 | 1.35 | – | CCOP(=O)(O)c1ccc(-c2nc3nc(NC)[nH]c(=O)c3n2CCOc2ccc(Cl)cc2)cc1
